The results in this text go back to US8367367B2, “Kit for positively detecting toxic material” (Samsung Electronics Co., Ltd., priority 2006, dated 2013).

Data set [1] relates to electron transfer system of the sub-mitochondrial particles. To be noted: 10 min. On the procedure: FIG. 3A is a graph illustrating the pH values at one-minute intervals when 20 wt % of ethanol, (toxic material) and 20 wt % of sorbitol (non-toxic material) are added to sub-mitochondrial particles and an electron donor to cause reactions.
FIGS. 5A and 5B illustrate an exemplary embodiment of a method of positively detecting toxic materials in which phenolphthalein is used as a pH indicator. FIG. 5A is a graph illustrating pH values at two-minute intervals when 20 wt % of ethanol (toxic material), 2.5 wt % of ethanol (toxic material), and 20 wt % of sorbitol (non-toxic material) were added to sub-mitochondrial particles and an electron donor to cause reactions. FIG. 5B is a graph and showing the final pH value of each reactant after the reaction solutions were allowed to react for 10 minutes according to the reaction described in FIG. 5A.

Data set [2] has the same test system.
From the text: NaOH was adequately added to a pH indicator, phenol red, to adjust the pH to 10. […] The reaction resultants obtained by the above process and a phenol red solution were mixed together with the weight ratio of 1:1 to identify the color of the mixture solution.

Where two headings read alike, the source gives them in different places.

Turning to `CCO` [ethanol], the “final pH of the reaction resultant” value stood at 8.16 in data set [1] (2.5 wt %) and 6.43 in data set [1] (20 wt %).
On to `OC[C@@H](O)[C@@H](O)[C@H](O)[C@@H](O)CO` [sorbitol], for which the “final pH of the reaction resultant” value in data set [1] (20 wt %) amounted to 9.17. For the same compound, the “color of the mixture solution (phenol red)” value in data set [2] is “remain the same”.
